Measured values from patent US9199946B2, “Pyrimidinone carboxamide inhibitors of endothelial lipase” (BRISTOL-MYERS SQUIBB COMPANY, priority 2012, dated 2015).

Biological target: T1, Endothelial lipase (EL) (Homo sapiens, UniProt Q9Y5X9)
T1 construct: HT-1080 cells, which were transformed by RAGE technology (Athersys) to overexpress endogenous EL; endogenous in cells; conditioned medium used as the enzyme source
T1 sequence (Q9Y5X9 21-500): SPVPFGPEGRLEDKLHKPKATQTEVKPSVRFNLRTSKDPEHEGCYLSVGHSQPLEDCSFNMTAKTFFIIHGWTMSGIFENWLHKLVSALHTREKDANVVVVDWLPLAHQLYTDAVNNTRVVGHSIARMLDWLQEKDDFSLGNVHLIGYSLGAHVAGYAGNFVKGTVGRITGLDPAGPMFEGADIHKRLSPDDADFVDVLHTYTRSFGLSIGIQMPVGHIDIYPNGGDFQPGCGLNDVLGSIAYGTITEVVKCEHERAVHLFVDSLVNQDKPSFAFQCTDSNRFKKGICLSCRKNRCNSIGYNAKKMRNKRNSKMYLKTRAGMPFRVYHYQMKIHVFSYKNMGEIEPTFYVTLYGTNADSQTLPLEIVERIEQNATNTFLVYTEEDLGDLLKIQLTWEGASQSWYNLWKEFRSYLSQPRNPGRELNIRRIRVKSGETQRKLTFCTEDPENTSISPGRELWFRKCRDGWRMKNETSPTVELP
Experiment: Endothelial lipase (EL) enzymatic assay with fluorescent substrate A10070 in DMPG vesicles
Assay type: biochemical
Details: conditioned media from HT-1080 cells overexpressing endogenous EL; 20 min preincubation at 37° C.; read-out: EL IC50
Summary of the method: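 EL activity was followed as a fluorescence rate (488/530 nm, reads every 20 s for 10 min, linear slope) on A10070 doped at 0.05 mole fraction into sonicated DMPG vesicles. Compound was first incubated 20 min at 37 °C, pH 8.0 HEPES/CaCl2 buffer, with conditioned media from EL-overexpressing HT-1080 cells.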

| IC50 | Structure (SMILES) |
| --- | --- |
| 0.03 µM | Nc1c(C(=O)NC2CCCC(c3cnn(Cc4ccccc4)c3)C2)[nH]c(=O)[nH]c1=O (centres unmarked) [Example 127, 5-amino-N-(3-(1-benzyl-1H-pyrazol-4-yl)cyclohexyl)-2,6-dioxo-1,2,3,6-tetrahydropyrimidine-4-carboxamide] |
| 3.74 µM | Nc1c(C(=O)NC2CCOc3ccccc32)[nH]c(=O)[nH]c1=O (centres unmarked) [Example 32, 5-amino-N-(chroman-4-yl)-2,6-dioxo-1,2,3,6-tetrahydropyrimidine-4-carboxamide] |
| 0.468 µM | COc1ccc2c(c1)C(NC(=O)c1[nH]c(=O)[nH]c(=O)c1N)CC2 (single isomer, unassigned) [Example 73, 5-amino-N-(6-methoxy-2,3-dihydro-1H-inden-1-yl)-2,6-dioxo-1,2,3,6-tetrahydropyrimidine-4-carboxamide] |

Same assay, conditions: range observed in the EL assay; read-out: EL IC50 values

| IC50 | Structure (SMILES) |
| --- | --- |
| ≤ 10 µM | CC(C)(C)OC(=O)N1CCC(NC(=O)c2[nH]c(=O)[nH]c(=O)c2N)C1 (centres unmarked) [Example 62, tert-butyl 3-(5-amino-2,6-dioxo-1,2,3,6-tetrahydropyrimidine-4-carboxamido)pyrrolidine-1-carboxylate] |
| ≤ 10 µM | Nc1c(C(=O)N[C@H]2CC[C@@H](c3cccc(C(F)(F)F)c3)CC2)[nH]c(=O)[nH]c1=O [Example 30, 5-amino-2,6-dioxo-N-(cis-4-(3-(trifluoromethyl)phenyl)cyclohexyl)-1,2,3,6-tetrahydropyrimidine-4-carboxamide] |
| ≤ 10 µM | Nc1c(C(=O)N[C@@H]2CC[C@@H](c3ccccc3)c3ccccc32)[nH]c(=O)[nH]c1=O [Example 20, 5-amino-2,6-dioxo-N-((1R,4S)-4-phenyl-1,2,3,4-tetrahydronaphthalen-1-yl)-1,2,3,6-tetrahydropyrimidine-4-carboxamide] |
| ≤ 10 µM | N#C[C@]1(c2ccc(Cl)c(Cl)c2)CC[C@@H](NC(=O)c2[nH]c(=O)[nH]c(=O)c2N)CC1 [Example 7, 5-amino-N-(cis-4-cyano-4-(3,4-dichlorophenyl)cyclohexyl)-2,6-dioxo-1,2,3,6-tetrahydropyrimidine-4-carboxamide] |
| ≤ 10 µM | Nc1c(C(=O)NC2CCC(n3cc(-c4ccc(Br)cc4)cn3)C2)[nH]c(=O)[nH]c1=O (centres unmarked) [Example 140, 5-amino-N-(3-(4-(4-bromophenyl)-1H-pyrazol-1-yl)cyclopentyl)-2,6-dioxo-1,2,3,6-tetrahydropyrimidine-4-carboxamide] |
| ≤ 10 µM | Nc1c(C(=O)N[C@H]2CCCc3c2cccc3C(F)(F)F)[nH]c(=O)[nH]c1=O [Example 50, (S)-5-amino-2,6-dioxo-N-(5-(trifluoromethyl)-1,2,3,4-tetrahydronaphthalen-1-yl)-1,2,3,6-tetrahydropyrimidine-4-carboxamide] |
| ≤ 10 µM | Nc1c(C(=O)N[C@@H]2CCCc3c(Nc4ccccc4)cccc32)[nH]c(=O)[nH]c1=O [Example 126, (R)-5-amino-2,6-dioxo-N-(5-(phenylamino)-1,2,3,4-tetrahydronaphthalen-1-yl)-1,2,3,6-tetrahydropyrimidine-4-carboxamide] |
| ≤ 10 µM | Nc1c(C(=O)N[C@@H]2CCCc3cc(Oc4ccccc4)ccc32)[nH]c(=O)[nH]c1=O [Example 85, (R)-5-amino-2,6-dioxo-N-(6-phenoxy-1,2,3,4-tetrahydronaphthalen-1-yl)-1,2,3,6-tetrahydropyrimidine-4-carboxamide] |
| ≤ 10 µM | Nc1c(C(=O)NC2CCCC(c3cnn(Cc4ccccc4)c3)C2)[nH]c(=O)[nH]c1=O (centres unmarked) [Example 127, 5-amino-N-(3-(1-benzyl-1H-pyrazol-4-yl)cyclohexyl)-2,6-dioxo-1,2,3,6-tetrahydropyrimidine-4-carboxamide] |
| ≤ 10 µM | Nc1c(C(=O)N[C@@H]2CCc3cc(OCc4ccccc4)ccc32)[nH]c(=O)[nH]c1=O [Example 87, (R)-5-amino-N-(5-(benzyloxy)-2,3-dihydro-1H-inden-1-yl)-2,6-dioxo-1,2,3,6-tetrahydropyrimidine-4-carboxamide] |
| ≤ 10 µM | CN1CCC(Nc2c(C(=O)N[C@H]3CC[C@@H](c4ccccc4)CC3)[nH]c(=O)[nH]c2=O)CC1 [Example 230, 5-(1-methylpiperidin-4-ylamino)-2,6-dioxo-N-(cis-4-phenylcyclohexyl)-1,2,3,6-tetrahydropyrimidine-4-carboxamide] |
| ≤ 10 µM | Cn1c(C(=O)N[C@H]2CC[C@@H](c3ccccc3)CC2)c(O)c(=O)[nH]c1=O [Example 241, 5-Hydroxy-3-methyl-2,6-dioxo-N-(cis-4-phenylcyclohexyl)-1,2,3,6-tetrahydropyrimidine-4-carboxamide] |
| ≤ 10 µM | Nc1c(C(=O)NC2CCC(c3ccccc3)c3ccccc32)[nH]c(=O)[nH]c1=O (centres unmarked) [Example 6, 5-amino-2,6-dioxo-N-(4-phenyl-1,2,3,4-tetrahydronaphthalen-1-yl)-1,2,3,6-tetrahydropyrimidine-4-carboxamide] |
| ≤ 10 µM | Nc1c(C(=O)N[C@@H]2CCCc3c(OCc4ccccc4)cccc32)[nH]c(=O)[nH]c1=O [Example 82, (R)-5-amino-N-(5-(benzyloxy)-1,2,3,4-tetrahydronaphthalen-1-yl)-2,6-dioxo-1,2,3,6-tetrahydropyrimidine-4-carboxamide] |
| ≤ 10 µM | CCOC(=O)N1CCC(NC(=O)c2[nH]c(=O)[nH]c(=O)c2N)c2ccccc21 (single isomer, unassigned; enantiomer b) [Example 193, Ethyl 4-(5-amino-2,6-dioxo-1,2,3,6-tetrahydropyrimidine-4-carboxamido)-3,4-dihydroquinoline-1(2H)-carboxylate (Enantiomer B)] |
| ≤ 10 µM | COc1cc(C)c(OC)c2c1CC(NC(=O)c1[nH]c(=O)[nH]c(=O)c1N)CC2 (centres unmarked) [Example 109, 5-amino-N-(5,8-dimethoxy-6-methyl-1,2,3,4-tetrahydronaphthalen-2-yl)-2,6-dioxo-1,2,3,6-tetrahydropyrimidine-4-carboxamide] |
| ≤ 10 µM | COc1cccc2c1CCCC2NC(=O)c1[nH]c(=O)[nH]c(=O)c1N (single isomer, unassigned; enantiomer a) [Example 198, 5-amino-N-(5-methoxy-1,2,3,4-tetrahydronaphthalen-1-yl)-2,6-dioxo 1,2,3,6-tetrahydropyrimidine-4-carboxamide (Enantiomer A)] |
| ≤ 10 µM | Nc1c(C(=O)NC2CCOc3ccccc32)[nH]c(=O)[nH]c1=O (centres unmarked) [Example 32, 5-amino-N-(chroman-4-yl)-2,6-dioxo-1,2,3,6-tetrahydropyrimidine-4-carboxamide] |
| ≤ 10 µM | Nc1c(C(=O)N[C@@H]2CCC[C@@H]2c2ccc(Cl)cc2)[nH]c(=O)[nH]c1=O [Example 64, 5-amino-N-((1R,2R)-2-(4-chlorophenyl)cyclopentyl)-2,6-dioxo-1,2,3,6-tetrahydropyrimidine-carboxamide] |
| ≤ 10 µM | COc1ccc2c(c1)C(NC(=O)c1[nH]c(=O)[nH]c(=O)c1N)CC2 (single isomer, unassigned) [Example 73, 5-amino-N-(6-methoxy-2,3-dihydro-1H-inden-1-yl)-2,6-dioxo-1,2,3,6-tetrahydropyrimidine-4-carboxamide] |
| ≤ 10 µM | Nc1c(C(=O)N[C@@H]2CC[C@@H](C(=O)N[C@H]3CCCc4ccccc43)C2)[nH]c(=O)[nH]c1=O [Example 146, 5-amino-2,6-dioxo-N-((1R,3R)-3-((S)-1,2,3,4-tetrahydronaphthalen-1-ylcarbamoyl)cyclopentyl)-1,2,3,6-tetrahydropyrimidine-4-carboxamide] |
| ≤ 10 µM | O=C(N[C@@H]1CCCc2c(OCC(F)(F)F)cccc21)c1[nH]c(=O)[nH]c(=O)c1O [Example 255, (R)-5-hydroxy-2,6-dioxo-N-(5-(2,2,2-trifluoroethoxy)-1,2,3,4-tetrahydronaphthalen-1-yl)-1,2,3,6-tetrahydropyrimidine-4-carboxamide] |
| ≤ 10 µM | Cc1ccc(-c2ccc([C@@H]3CC[C@H](NC(=O)c4[nH]c(=O)[nH]c(=O)c4N)C3)cc2)cc1 [Example 169, 5-amino-N-((1S,3R)-3-(4′-methylbiphenyl-4-yl)cyclopentyl)-2,6-dioxo-1,2,3,6-tetrahydropyrimidine-4-carboxamide] |
